# Experimental data: patent publication US8691789B2, “Probe of iodine-123 marker thymidine (FLT)analogue [123I]-IaraU” (Atomic Energy Council-Institute of Nuclear Research, priority 2012, dated 2014)
# “Also recorded” adds a separate entry of the source.
# Legend:
# Assay type in all cases: cell-based
# [1] = tested on: NG4TL4-wild type cells; experiment: cellular uptake experiment of [^123I]-IaraU in NG4TL4-wild type cells
# Protocol: (§1) Please refer to FIG. 3 which is a schematic view of experimental results of cell absorption of [^123I]-IaraU according to the invention. As shown, the present invention utilizes the above synthesized iodine-123 marker FLT analogue for in vitro experiments which totally use cells of NG4TL4-wild type, NG4TL4-HSVtk, NG4TL4-sr39tk. They are cultivated in the DMEM (Dulbecco's Modified Eagle's Medium) medium containing 10% fetal bovine serum at 37° C. and in the environment having 5% carbon dioxide. Then they are planted in 96-well plate at the proportion of 1×10^5 cells/well for 12 hours, and then subjected to biological experiments.
# (§2) Before the cellular uptake experiment starts, 1 mCi of the above [^123I]-IaraU 8 or [^18F]-FLT (from INER) is thoroughly mixed with 50 ml of serum-free DMEM medium. The cultivated medium on the 96-well plate is drained out, and the aforementioned cultivated medium mixed with radioactive material is immediately added material with the ratio of 200 μl/well. The cells to which the cultivated medium has been added are placed back to an incubator of 5% CO2 at 37° C. […] Finally, a Gamma-Counter is used to measure the radioactivity of cytoplasm for each individual supernatant. The formula for analysis is as follows: (Radioactivity of cytoplasm/Activity as whole)×100%.
# [2] = tested on: NG4TL4-HSVtk cells; experiment: cellular uptake experiment of [^123I]-IaraU in NG4TL4-HSVtk cells
# Protocol: as §1, §2
# [3] = tested on: NG4TL4-sr39tk cells; experiment: cellular uptake experiment of [^123I]-IaraU in NG4TL4-sr39tk cells
# Protocol: as §1, §2
# [4] = after five hours, % of the total amount
# [5] = time points 0.25, 0.5, 1.5, 3 and 5 hours
structure (smiles),measurement,setting,value
"O=c1[nH]c(=O)n([C@@H]2O[C@H](CO)C(O)C2O)cc1[123I] (stereo partly drawn) [[^123I]-IaraU, 1-(β-D-arabinofuranosyl)-5-[^123I]iodopyrimidin-2,4(3H)-dione]",maximum intake (radioactivity of cytoplasm/activity as whole ×100%),[1]; [4],not more than 10%
same,cellular uptake over time (in words),[1]; [5],no significant intake; also recorded: no significant increase in quantity
same,maximum intake (radioactivity of cytoplasm/activity as whole ×100%),[2]; [4],not more than 10%
same,cellular uptake over time (in words),[2]; [5],no significant intake; also recorded: no significant increase in quantity
same,maximum intake (radioactivity of cytoplasm/activity as whole ×100%),[3]; [4],not more than 10%
same,cellular uptake over time (in words),[3]; [5],no significant intake; also recorded: no significant increase in quantity
